Measurements published in the NIST ThermoML archive (doi:10.1021/acs.jced.7b00344).

Assays:
[1] = Liquid; for viscosity / mass density: 101.3 kPa; for viscosity: Capillary tube (Ostwald / Ubbelohde) method; for mass density: Pycnometric method; for vapor or sublimation pressure: Ebulliometric method (Recirculating still)
[2] = xn = mol fraction of the nth substance listed; settings: 101.3 kPa, Liquid, x1 = 1; for viscosity: Capillary tube (Ostwald / Ubbelohde) method; for mass density: Pycnometric method

CC(=O)CCCCl [1-chloro-4-pentanone]
[1]
Settings	mass density [kg/m3]	vapor or sublimation pressure [kPa]	viscosity [mPa·s]
303.15 K	1051.3	–	1.582
313.15 K	1041.1	–	1.318
323.15 K	1031.2	–	1.078
333.15 K	1020.8	–	0.9667
343.2 K	–	2.91	–
353.1 K	–	4.66	–
363.1 K	–	7.15	–
373.8 K	–	10.5	–
393.8 K	–	20.79	–
404.6 K	–	30.23	–
413.8 K	–	41.16	–
423.8 K	–	52.6	–
433.5 K	–	62.27	–
438.1 K	–	72.35	–
443.6 K	–	81.58	–
449.3 K	–	92.85	–
454 K	–	103.42	–

CC(=O)C1CC1 [1-cyclopropyl ethanone]
[1]
Settings	mass density [kg/m3]	vapor or sublimation pressure [kPa]	viscosity [mPa·s]
300 K	–	3.65	–
303.15 K	889.8	–	0.5572
310.1 K	–	6.06	–
313.15 K	880.3	–	0.5015
320.8 K	–	9.95	–
323.15 K	870.6	–	0.4524
333.15 K	861.2	–	0.3942
337 K	–	20.07	–
347.7 K	–	30.05	–
355.6 K	–	40.07	–
362.1 K	–	49.78	–
367.6 K	–	59.85	–
372.6 K	–	70.04	–
376.9 K	–	80.03	–
380.6 K	–	89.62	–
384.8 K	–	101.3	–
385 K	–	102.18	–

CC(=O)C1CC1 [1-cyclopropyl ethanone] + CC(=O)C1CCOC1=O
[2]
Settings	mass density [kg/m3]	viscosity [mPa·s]
303.15 K	889.8	0.5572
313.15 K	880.3	0.5015
323.15 K	870.6	0.4524
333.15 K	861.2	0.3942

CC(=O)C1CCOC1=O (centres undefined) [2-acetylbutyrolactone]
[1]
Settings	mass density [kg/m3]	vapor or sublimation pressure [kPa]	viscosity [mPa·s]
303.15 K	1185.7	–	3.794
313.15 K	1178.3	–	3.424
323.15 K	1168.9	–	3.067
333.15 K	1159.4	–	2.719
385 K	–	0.552	–
395.1 K	–	1.02	–
405.2 K	–	1.77	–
415.3 K	–	2.92	–
425.5 K	–	4.61	–
434.6 K	–	6.98	–
445.1 K	–	10	–
464.5 K	–	20	–
478.2 K	–	30.05	–
489.4 K	–	40.17	–
505.8 K	–	60.05	–
511.5 K	–	69.06	–
517.3 K	–	78.1	–
523.3 K	–	88.01	–
530.8 K	–	103.54	–
530.9 K	–	101.3	–
